Experimental data as given in US7709498B2, “Quinoline derivatives as antibacterial agents” (Janssen Pharmaceutica N.V., priority 2005, dated 2010).
Converted amounts (≈) assume the structure as drawn.

Tests used:
Format in all cases: cell-based
[1] = tested on: Staphylococcus aureus (ATCC25923); test: Microtitre plate assay, IC90 determination, STA 25923; details: 90% inhibitory concentration for bacterial growth, 37° C., resazurin fluorescence
Description: (§1) The bacteria used in this study were grown overnight in flasks containing 100 ml Mueller-Hinton Broth (Becton Dickinson—cat. no. 275730) in sterile de-ionized water, with shaking, at 37° C. Stocks (0.5 ml/tube) were stored at −70° C. until use. Bacteria titrations were performed in microtiter plates to detect the TCID50, in which the TCID50 represents the dilution that gives rise to bacterial growth in 50% of inoculated cultures.
(§2) In general, an inoculum level of approximately 100 TCID50 was used for susceptibility testing.
(§3) Flat-bottom, sterile 96-well plastic microtiter plates were filled with 180 μl of sterile deionized water, supplemented with 0.25% BSA. Subsequently, stock solutions (7.8× final test concentration) of compounds were added in 45 μl volumes in column 2. Serial five-fold dilutions (45 μl in 180 μl) were made directly in the microtiter plates from column 2 to reach column 11. Untreated control samples with (column 1) and without (column 12) inoculum were included in each microtiter plate. Depending on the bacteria type, approximately 10 to 60 CFU per well of bacteria inoculum (100 TCID50), in a volume of 100 μl in 2.8× Mueller-Hinton broth medium, was added to the rows A to H, except column 12. The same volume of broth medium without inoculum was added to column 12 in row A to H. The cultures were incubated at 37° C. for 24 hours under a normal atmosphere (incubator with open air valve and continuous ventilation). At the end of incubation, one day after inoculation, the bacterial growth was quantitated fluorometrically. Therefore resazurin (0.6 mg/ml) was added in a volume of 20 μl to all wells 3 hours after inoculation, and the plates were re-incubated overnight. A change in colour from blue to pink indicated the growth of bacteria. The fluorescence was read in a computer-controlled fluorometer (Cytofluor Biosearch) at an excitation wavelength of 530 nm and an emission wavelength of 590 nm. The % growth inhibition achieved by the compounds was calculated according to standard methods. The IC90 (expressed in μg/ml) was defined as the 90% inhibitory concentration for bacterial growth.
(§4) BSU 3639 means Bacillus subtilis (ATCC43639); ECO 25922 means Escherichia coli (ATCC25922); EFA 14506 means Enterococcus faecalis (ATCC14506); EFA 29212 means Enterococcus faecalis (ATCC29212); LMO 49594 means Listeria monocytogenes (ATCC49594); PAE 27853 means Pseudomonas aeruginosa (ATCC27853); SMU 33402 means Streptococcus mutans (ATCC33402); SPN 6305 means Streptococcus pneumoniae (ATCC6305); SPY 8668 means Streptococcus pyogens (ATCC8668); STA 43300 means Staphylococcus aureus (ATCC43300); STA 25923 means Staphylococcus aureus (ATCC25923); STA 29213 means Staphylococcus aureus (ATCC29213); STA RMETH means methicilline resistant Staphylococcus aureus (MRSA) (a clinical isolate from the University of Antwerp). ATCC means American type tissue culture.

[2] = tested on: Enterococcus faecalis (ATCC29212); test: Microtitre plate assay, IC90 determination, EFA 29212; details: 90% inhibitory concentration for bacterial growth, 37° C., resazurin fluorescence; for IC90 (μg/ml) EFA 29212: 24 hours; for IC90: Enterococcus faecalis, ATCC29212, 24 h, read-out: IC90 (μg/ml) EFA 29212
Description: as §1, §2, §3, §4

[3] = tested on: Streptococcus pneumoniae (ATCC6305); test: Microtitre plate assay, IC90 determination, SPN 6305; details: 90% inhibitory concentration for bacterial growth, 37° C., resazurin fluorescence; for IC90 (μg/ml) SPN 6305: 24 hours; for IC90: Streptococcus pneumoniae, ATCC6305, 24 h, read-out: IC90 (μg/ml) SPN 6305
Description: as §1, §2, §3, §4

[4] = tested on: Bacillus subtilis (ATCC43639); test: Microtitre plate assay, IC90 determination, BSU 43639; details: 90% inhibitory concentration for bacterial growth, 37° C., resazurin fluorescence; for IC90 (μg/ml) BSU 43639: 24 hours; for IC90: Bacillus subtilis, ATCC43639, 24 h, read-out: IC90 (μg/ml) BSU 43639
Description: as §1, §2, §3, §4

[5] = tested on: Listeria monocytogenes (ATCC49594); test: Microtitre plate assay, IC90 determination, LMO 49594; details: 90% inhibitory concentration for bacterial growth, 37° C., resazurin fluorescence; for IC90 (μg/ml) LMO 49594: 24 hours; for IC90: Listeria monocytogenes, ATCC49594, 24 h, read-out: IC90 (μg/ml) LMO 49594
Description: as §1, §2, §3, §4

[6] = tested on: Streptococcus pyogens (ATCC8668); test: Microtitre plate assay, IC90 determination, SPY 8668; details: 90% inhibitory concentration for bacterial growth, 37° C., resazurin fluorescence; for IC90 (μg/ml) SPY 8668: 24 hours; for IC90: Streptococcus, ATCC8668, 24 h, read-out: IC90 (μg/ml) SPY 8668
Description: as §1, §2, §3, §4

[7] = tested on: Staphylococcus aureus (ATCC43300); test: Microtitre plate assay, IC90 determination, STA 43300; details: Staphylococcus aureus, ATCC43300, 24 h, 90% inhibitory concentration for bacterial growth, 37° C., resazurin fluorescence, read-out: IC90 (μg/ml) STA 43300
Description: as §1, §2, §3, §4

[8] = tested on: Streptococcus mutans (ATCC33402); test: Microtitre plate assay, IC90 determination, SMU 33402; details: 90% inhibitory concentration for bacterial growth, 37° C., resazurin fluorescence; for IC90 (μg/ml) SMU 33402: 24 hours; for IC90: Streptococcus mutans, ATCC33402, 24 h, read-out: IC90 (μg/ml) SMU 33402
Description: as §1, §2, §3, §4

[9] = tested on: Pseudomonas aeruginosa (ATCC27853); test: Microtitre plate assay, IC90 determination, PAE 27853; details: 90% inhibitory concentration for bacterial growth, 37° C., resazurin fluorescence; for IC90: Pseudomonas aeruginosa, ATCC27853, 24 h, read-out: IC90 (μg/ml) PAE 27853
Description: as §1, §2, §3, §4

SMILES | IC90 (μg/ml) EFA 29212 [2] [µg/mL] | IC90 (μg/ml) SPN 6305 [3] [µg/mL] | IC90 (μg/ml) LMO 49594 [5] [µg/mL] | IC90 [2] [µg/mL] | IC90 [7] [µg/mL] | IC90 [5] [µg/mL] | IC90 [9] [µg/mL] | IC90 [8] [µg/mL] | other results
CCNCCC(O)(c1ccc(F)cc1F)C(c1ccccc1)c1cc2cc(Br)ccc2nc1OC (racemic) [B] |  |  |  |  |  |  |  |  | IC90 (μg/ml) STA 25923 ([1]; 24 hours): 8.6 µg/mL (≈ 15.9 µM)
COc1nc2ccc(Br)cc2cc1C(c1ccccc1)C(O)(CCN1CCN(C)CC1)c1ccccc1 (racemic) [Compound 51] | 25.0 (≈ 44.6 µM) | 5.6 (≈ 9.99 µM) | 25.0 (≈ 44.6 µM) |  |  |  |  |  | IC90 (μg/ml) BSU 43639 [4]: 28.1 µg/mL (≈ 50.1 µM)
COc1nc2ccc(Br)cc2cc1C(c1ccccc1)C(O)(CCN1CCN(C)CC1)c1ccc2ccccc2c1 (racemic) [Compound 136] | 10.6 (≈ 17.4 µM) |  | 10.6 (≈ 17.4 µM) |  |  |  |  |  | IC90 (μg/ml) BSU 43639 [4]: 10.6 µg/mL (≈ 17.4 µM)
COc1nc2ccc(Br)cc2cc1C(c1ccccc1)C(O)(CCN(C)C)c1ccccc1 (single isomer, unassigned) [E] |  | 5.7 (≈ 11.3 µM) |  | 11.3 (≈ 22.4 µM) | 12.7 (≈ 25.1 µM) | 7.1 (≈ 14 µM) | 10.1 (≈ 20 µM) |  | IC90 [4]: 12.7 µg/mL (≈ 25.1 µM); IC90 (μg/ml) SPY 8668 [6]: 5.1 µg/mL (≈ 10.1 µM); IC90 (μg/ml) SMU 33402 [8]: 10.1 µg/mL (≈ 20 µM)
CCOc1nc2ccc(Br)cc2cc1C(c1ccccc1)C(O)(CCN(C)C)c1ccccc1 (stereo not drawn) [Compound 6] |  |  |  | 11.6 (≈ 22.3 µM) |  | 11.6 (≈ 22.3 µM) | 11.6 (≈ 22.3 µM) |  | IC90 [3]: 13 µg/mL (≈ 25 µM); IC90 [6]: 4.6 µg/mL (≈ 8.85 µM); IC90 (μg/ml) SMU 33402 [8]: 4.6 µg/mL (≈ 8.85 µM)
COc1nc2ccc(Br)cc2cc1C(c1ccccc1)C(O)(CCN(C)C)c1ccc(Cl)cc1 (stereo not drawn) [Compound 16] |  |  |  |  |  |  | 13.6 (≈ 25.2 µM) |  | 
CCN(CC)CCC(O)(c1ccccc1)C(c1ccccc1)c1cc2cc(Br)ccc2nc1OC (stereo not drawn) [Compound 18] |  | 0.7 (≈ 1.31 µM) |  | 13.3 (≈ 24.9 µM) |  | 13.3 (≈ 24.9 µM) |  |  | 
COc1nc2ccc(Br)cc2cc1C(c1ccccc1)C(O)(CCN(C)C)c1cccs1 (stereo not drawn) [Compound 21] |  | 12.8 (≈ 25 µM) |  | 11.5 (≈ 22.5 µM) | 12.8 (≈ 25 µM) | 4.6 (≈ 8.99 µM) |  | 11.5 (≈ 22.5 µM) | 
COc1nc2ccc(Br)cc2cc1C(c1ccccc1)C(O)(CCN(C)C)c1ccsc1 (stereo not drawn) [Compound 25] |  | 12.8 (≈ 25 µM) |  | 11.5 (≈ 22.5 µM) | 12.8 (≈ 25 µM) | 11.5 (≈ 22.5 µM) |  | 11.5 (≈ 22.5 µM) | IC90 [6]: 4.1 µg/mL (≈ 8.02 µM)
COc1nc2ccc(-c3ccccc3)cc2cc1C(c1ccccc1)C(O)(CCN(C)C)c1ccccc1 (stereo not drawn) [Compound 26] |  | 5.6 (≈ 11.1 µM) |  | 4.5 (≈ 8.95 µM) | 11.3 (≈ 22.5 µM) | 4.5 (≈ 8.95 µM) | 2 (≈ 3.98 µM) | 11.3 (≈ 22.5 µM) | IC90 [4]: 10 µg/mL (≈ 19.9 µM); IC90 ([1]; Staphylococcus aureus, ATCC25923, 24 h, read-out: IC90 (μg/ml) STA 25923): 8.9 µg/mL (≈ 17.7 µM); IC90 [6]: 2.5 µg/mL (≈ 4.97 µM)
COc1nc2ccc(-c3ccccc3)cc2cc1C(c1ccccc1)C(O)(CCN(C)C)c1ccccc1 (stereo not drawn) [Compound 27] |  | 12.6 (≈ 25.1 µM) | 8.9 (≈ 17.7 µM) |  |  |  |  |  | IC90 (μg/ml) BSU 43639 [4]: 10.0 µg/mL (≈ 19.9 µM)
COc1nc2ccc(Cl)cc2cc1C(c1ccccc1)C(O)(CCN(C)C)c1ccccc1 (stereo not drawn) [Compound 30] | 10.3 (≈ 22.3 µM) | 5.2 (≈ 11.3 µM) | 10.3 (≈ 22.3 µM) |  |  |  |  |  | IC90 (μg/ml) SPY 8668 [6]: 10.3 µg/mL (≈ 22.3 µM); IC90 (μg/ml) SMU 33402 [8]: 10.3 µg/mL (≈ 22.3 µM); IC90 (μg/ml) PAE 27853 ([9]; 24 hours): 9.2 µg/mL (≈ 20 µM)
COc1nc2ccc(Cl)cc2cc1C(c1ccccc1)C(O)(CCN(C)C)c1ccccc1 (stereo not drawn) [Compound 31] | 4.6 (≈ 9.98 µM) |  | 4.1 (≈ 8.89 µM) |  | 11.6 (≈ 25.2 µM) |  | 10.3 (≈ 22.3 µM) | 10.3 (≈ 22.3 µM) | IC90 [3]: 5.2 µg/mL (≈ 11.3 µM); IC90 [4]: 10.3 µg/mL (≈ 22.3 µM); IC90 (μg/ml) SPY 8668 [6]: 1.8 µg/mL (≈ 3.9 µM)
